From ChEMBL document CHEMBL1201862, “PubChem BioAssay data set” (2004)
Activity calls are given as the source filed them.

Tests used:
[1] = viability of HCT116 lacking mutant beta-catenin – cell-based, human colon tumor, dose response (AID 1045); format: functional;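 also: HCT116 colon tumor cells with beta catenin knocked out; cells exposed to compound for 60 hours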
H4 = experiment: Luminescence Cell-Based Dose Response HTS to Identify Activators of 5'UTR Stem-Loop Driven Prion Protein mRNA Translation in H4 Neuroglioblastoma Cells. [Related pubchem assays: 1829 (Project Summary), 1814 (Primary HTS)]; format: functional; details: Homo sapiens
[2] = molecular target: T1, Sentrin-specific protease 8 (Homo sapiens, UniProt Q96LD8); format: functional;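 also: luminescence read-out of SENP8 inhibition, dose-response confirmation following an ultra-high-throughput screen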
T1 sequence (Q96LD8 whole entry): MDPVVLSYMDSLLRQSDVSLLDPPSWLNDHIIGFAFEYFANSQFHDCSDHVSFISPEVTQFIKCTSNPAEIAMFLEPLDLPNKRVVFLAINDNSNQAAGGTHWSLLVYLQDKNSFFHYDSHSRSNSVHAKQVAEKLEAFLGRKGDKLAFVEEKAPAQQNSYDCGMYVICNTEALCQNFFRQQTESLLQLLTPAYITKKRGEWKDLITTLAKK

[3] = viability of PTEN-deleted HCT116 cells – cell-based, HCT116 PTEN knockout, dose response (AID 1047); format: functional;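 also: HCT116 colon tumor cells with PTEN knocked out; cells exposed to compound for 60 hours before readout; potency for loss of cell viability measured by luminescence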
[4] = molecular target: T2, Sentrin-specific protease 6 (Homo sapiens, UniProt Q9GZR1); format: functional;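 also: Luminescence-based dose-response confirmatory assay of SENP6 inhibition, following up an ultra-high-throughput screen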
T2 sequence (Q9GZR1 whole entry): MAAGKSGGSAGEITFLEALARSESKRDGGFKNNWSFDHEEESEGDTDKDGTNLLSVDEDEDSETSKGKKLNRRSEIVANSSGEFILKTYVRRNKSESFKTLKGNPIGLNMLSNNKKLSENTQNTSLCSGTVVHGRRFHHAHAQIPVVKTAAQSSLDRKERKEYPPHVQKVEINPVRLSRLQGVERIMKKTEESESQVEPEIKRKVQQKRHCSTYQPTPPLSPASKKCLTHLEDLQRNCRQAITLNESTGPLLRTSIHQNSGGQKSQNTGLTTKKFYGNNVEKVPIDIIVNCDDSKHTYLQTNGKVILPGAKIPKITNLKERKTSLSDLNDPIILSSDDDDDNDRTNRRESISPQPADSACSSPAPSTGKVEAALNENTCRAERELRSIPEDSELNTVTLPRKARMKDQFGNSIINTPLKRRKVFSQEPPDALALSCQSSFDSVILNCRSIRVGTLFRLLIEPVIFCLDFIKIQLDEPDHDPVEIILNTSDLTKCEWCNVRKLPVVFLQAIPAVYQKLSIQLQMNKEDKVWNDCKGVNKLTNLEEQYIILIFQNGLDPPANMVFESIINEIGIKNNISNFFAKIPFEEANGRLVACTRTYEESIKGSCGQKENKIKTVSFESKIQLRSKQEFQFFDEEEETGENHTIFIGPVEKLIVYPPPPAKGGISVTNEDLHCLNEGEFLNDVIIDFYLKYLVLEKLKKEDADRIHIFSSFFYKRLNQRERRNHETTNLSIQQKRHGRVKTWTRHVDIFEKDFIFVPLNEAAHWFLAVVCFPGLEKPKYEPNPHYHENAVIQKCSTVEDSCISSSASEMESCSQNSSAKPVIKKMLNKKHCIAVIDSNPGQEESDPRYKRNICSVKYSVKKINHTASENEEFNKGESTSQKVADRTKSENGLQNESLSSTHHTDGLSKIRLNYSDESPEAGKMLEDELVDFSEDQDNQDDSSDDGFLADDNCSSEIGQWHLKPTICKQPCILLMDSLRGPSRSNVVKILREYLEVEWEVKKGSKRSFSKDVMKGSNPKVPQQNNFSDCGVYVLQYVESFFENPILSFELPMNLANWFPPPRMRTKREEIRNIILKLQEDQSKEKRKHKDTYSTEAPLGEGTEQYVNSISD

[5] = molecular target: T3, Tyrosine-protein phosphatase non-receptor type 22 (Homo sapiens, UniProt Q9Y2R2); format: functional
T3 sequence (Q9Y2R2 whole entry): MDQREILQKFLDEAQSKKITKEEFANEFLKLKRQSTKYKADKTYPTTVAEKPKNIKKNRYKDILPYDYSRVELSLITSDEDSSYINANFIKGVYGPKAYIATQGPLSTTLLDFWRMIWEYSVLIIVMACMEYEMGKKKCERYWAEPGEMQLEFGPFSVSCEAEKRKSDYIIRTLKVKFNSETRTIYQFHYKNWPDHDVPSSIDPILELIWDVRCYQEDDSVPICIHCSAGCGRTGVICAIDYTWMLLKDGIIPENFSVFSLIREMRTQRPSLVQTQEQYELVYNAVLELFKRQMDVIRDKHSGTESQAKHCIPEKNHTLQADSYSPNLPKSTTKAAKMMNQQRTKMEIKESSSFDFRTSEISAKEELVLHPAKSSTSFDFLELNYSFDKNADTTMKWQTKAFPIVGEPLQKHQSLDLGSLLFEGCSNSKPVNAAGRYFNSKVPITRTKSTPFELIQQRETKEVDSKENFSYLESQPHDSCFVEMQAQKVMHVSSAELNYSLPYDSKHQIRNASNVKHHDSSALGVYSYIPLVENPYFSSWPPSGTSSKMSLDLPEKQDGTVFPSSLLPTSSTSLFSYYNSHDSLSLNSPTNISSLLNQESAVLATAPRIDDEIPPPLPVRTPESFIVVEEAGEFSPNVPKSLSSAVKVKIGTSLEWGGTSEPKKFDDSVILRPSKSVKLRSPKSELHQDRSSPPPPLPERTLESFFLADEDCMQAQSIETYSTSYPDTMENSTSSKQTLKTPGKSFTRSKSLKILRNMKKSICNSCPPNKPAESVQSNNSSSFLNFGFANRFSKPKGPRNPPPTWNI

[6] = molecular target: T4, Tyrosine-protein phosphatase non-receptor type 7 (Homo sapiens, UniProt P35236); experiment: HTS HePTP Fluorescent Assay using OMFP substrate for In Vitro dose response studies. [Related pubchem assays (depositor defined):AID1059, AID1077, AID1784, AID2068, AID2085, AID435032, AID521]; format: functional
T4 sequence (P35236 whole entry): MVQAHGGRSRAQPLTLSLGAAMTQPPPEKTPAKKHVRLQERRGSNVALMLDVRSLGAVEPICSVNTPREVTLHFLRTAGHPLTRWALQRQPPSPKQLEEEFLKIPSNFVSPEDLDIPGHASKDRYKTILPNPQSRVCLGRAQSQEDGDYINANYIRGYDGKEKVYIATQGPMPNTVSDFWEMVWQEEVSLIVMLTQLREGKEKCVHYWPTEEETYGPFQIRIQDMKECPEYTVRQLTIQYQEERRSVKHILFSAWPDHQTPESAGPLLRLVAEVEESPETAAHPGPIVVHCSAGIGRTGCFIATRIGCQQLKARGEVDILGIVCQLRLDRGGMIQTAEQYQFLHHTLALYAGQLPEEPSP

[7] = molecular target: T3, Tyrosine-protein phosphatase non-receptor type 22; experiment: SAR LYP1 Fluorescent Assay using pCAP substrate for In Vitro dose response studies - Set 2. [Related pubchem assays (depositor defined):AID1779, AID1784, AID2135, AID449727]; format: functional
[8] = molecular target: T3, Tyrosine-protein phosphatase non-receptor type 22; experiment: PubChem AID 2140

COc1ccc(Nc2ccc3c(c2)=NC2(CCCCC2)[N+]=3[O-])cc1
active: EC50 [1] 1.89 µM | EC50 (H4) 79.5 µM | IC50 [2] 14.8 µM | EC50 [3] 2.49 µM | IC50 [4] 6.28 µM

COc1ccc(/C=C2\SC(=S)N(CCC(=O)Nc3ccc(C(=O)O)cc3)C2=O)cc1OC
active: IC50 [5] 3.74 µM | IC50 [6] 5.64 µM | IC50 [7] 1.38 µM | IC50 [8] 7.46 µM
